{"source": "patent US20130244963A1", "about": "(Portola Pharmaceuticals, Inc., priority 2010, published 2013)", "key": {"[1]": {"test_system": "collagen induced arthritis (CIA)", "experiment": "Rat Collagen Induced Arthritis (CIA) Model, hind paw inflammation score", "type": "in vivo", "parameters": "scale not given here", "description": "Holmdahl R, Lorentzen J C, Lu S, Olofsson P, Wester L, Holmberg J, et al. Arthritis in rats with non-immunogenic adjuvants as models for rheumatoid arthritis. […] On day 10, the rats were boosted with a second subcutaneous injection. Test article administration was initiated when at least one hind paw was inflamed (clinical arthritis score=1) and enrollment into a treatment group was designated as day 1 of the study for each individual animal (n=4 to 8/dose group). Progression of disease was evidenced by increased edema and erythema of one or both ankle joints, followed by the involvement of the metatarsal and interphalangeal joints. […] Hind paws were scored daily (inflammation score) for progression of disease and evaluated for histopathological changes in cartilage structure, cellularity, matrix glycoaminoglycans, and synovial inflammation at the end of the 16-day treatment course. […] In Tables below, mean scores are calculated for all animals in dosed group over the entire experimental time course."}, "[2]": {"experiment": "Lymphocyte counts in rats with bovine collagen antibody mediated inflammation", "type": "in vivo, rat", "settings": "rat, in vivo", "description": "In 7 control rats treated with vehicle, lymphocyte count was […]. In 4 rats treated with dexamethasone, count=2.32×10^3/μL, p=0.42. However 3 out of 4 of rats did suffer from lymphopenia."}, "Flt3": {"target": "T1, Flt3 (Homo sapiens, UniProt P36888)", "T1 sequence (P36888 27-993)": "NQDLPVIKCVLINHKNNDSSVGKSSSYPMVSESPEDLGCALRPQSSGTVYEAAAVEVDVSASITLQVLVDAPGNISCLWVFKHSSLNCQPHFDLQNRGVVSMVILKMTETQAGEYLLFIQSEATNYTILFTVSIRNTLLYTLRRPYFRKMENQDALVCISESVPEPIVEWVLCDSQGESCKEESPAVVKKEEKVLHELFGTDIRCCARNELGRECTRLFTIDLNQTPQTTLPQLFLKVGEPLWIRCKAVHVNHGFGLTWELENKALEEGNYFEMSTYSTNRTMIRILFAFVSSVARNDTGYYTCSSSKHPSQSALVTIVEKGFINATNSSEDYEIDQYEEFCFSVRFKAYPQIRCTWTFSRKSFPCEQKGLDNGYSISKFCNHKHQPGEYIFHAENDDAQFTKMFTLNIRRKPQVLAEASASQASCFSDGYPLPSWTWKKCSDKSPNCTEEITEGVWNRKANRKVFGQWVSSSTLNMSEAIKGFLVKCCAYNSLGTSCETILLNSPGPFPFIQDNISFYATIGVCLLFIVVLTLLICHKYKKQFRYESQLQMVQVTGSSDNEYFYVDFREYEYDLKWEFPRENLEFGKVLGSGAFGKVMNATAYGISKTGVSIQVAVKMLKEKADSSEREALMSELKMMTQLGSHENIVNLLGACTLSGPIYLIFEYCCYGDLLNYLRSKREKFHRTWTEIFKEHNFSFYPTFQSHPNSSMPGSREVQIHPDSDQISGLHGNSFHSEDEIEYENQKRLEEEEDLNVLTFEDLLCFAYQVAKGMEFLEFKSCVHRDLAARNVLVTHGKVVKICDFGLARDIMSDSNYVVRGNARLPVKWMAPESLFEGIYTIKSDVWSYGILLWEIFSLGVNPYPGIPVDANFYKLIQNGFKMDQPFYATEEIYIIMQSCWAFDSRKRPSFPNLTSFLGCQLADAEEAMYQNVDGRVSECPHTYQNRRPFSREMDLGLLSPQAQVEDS", "settings": "cited from earlier work"}, "JAK kinases": {"test_system": "JAK kinases", "settings": "cited from earlier work"}, "Src kinase": {"target": "Src kinase (Homo sapiens, UniProt P12931)", "sequence (P12931 whole entry)": "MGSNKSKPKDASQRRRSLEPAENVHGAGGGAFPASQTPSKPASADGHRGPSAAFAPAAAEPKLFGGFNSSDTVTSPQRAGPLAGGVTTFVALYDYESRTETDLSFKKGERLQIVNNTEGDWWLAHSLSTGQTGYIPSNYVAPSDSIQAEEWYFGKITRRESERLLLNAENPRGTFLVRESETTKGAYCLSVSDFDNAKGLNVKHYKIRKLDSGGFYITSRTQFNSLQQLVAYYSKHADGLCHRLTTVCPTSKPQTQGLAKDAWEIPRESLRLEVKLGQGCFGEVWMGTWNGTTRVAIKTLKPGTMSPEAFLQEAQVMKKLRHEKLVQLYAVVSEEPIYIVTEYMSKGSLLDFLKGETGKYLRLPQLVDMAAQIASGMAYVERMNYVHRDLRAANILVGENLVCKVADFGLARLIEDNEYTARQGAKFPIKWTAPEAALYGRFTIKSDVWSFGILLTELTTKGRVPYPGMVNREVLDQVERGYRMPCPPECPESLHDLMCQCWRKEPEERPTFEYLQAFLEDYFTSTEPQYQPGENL", "settings": "cited from earlier work"}, "cKit": {"target": "cKit (Homo sapiens, UniProt P10721)", "sequence (P10721 26-976)": "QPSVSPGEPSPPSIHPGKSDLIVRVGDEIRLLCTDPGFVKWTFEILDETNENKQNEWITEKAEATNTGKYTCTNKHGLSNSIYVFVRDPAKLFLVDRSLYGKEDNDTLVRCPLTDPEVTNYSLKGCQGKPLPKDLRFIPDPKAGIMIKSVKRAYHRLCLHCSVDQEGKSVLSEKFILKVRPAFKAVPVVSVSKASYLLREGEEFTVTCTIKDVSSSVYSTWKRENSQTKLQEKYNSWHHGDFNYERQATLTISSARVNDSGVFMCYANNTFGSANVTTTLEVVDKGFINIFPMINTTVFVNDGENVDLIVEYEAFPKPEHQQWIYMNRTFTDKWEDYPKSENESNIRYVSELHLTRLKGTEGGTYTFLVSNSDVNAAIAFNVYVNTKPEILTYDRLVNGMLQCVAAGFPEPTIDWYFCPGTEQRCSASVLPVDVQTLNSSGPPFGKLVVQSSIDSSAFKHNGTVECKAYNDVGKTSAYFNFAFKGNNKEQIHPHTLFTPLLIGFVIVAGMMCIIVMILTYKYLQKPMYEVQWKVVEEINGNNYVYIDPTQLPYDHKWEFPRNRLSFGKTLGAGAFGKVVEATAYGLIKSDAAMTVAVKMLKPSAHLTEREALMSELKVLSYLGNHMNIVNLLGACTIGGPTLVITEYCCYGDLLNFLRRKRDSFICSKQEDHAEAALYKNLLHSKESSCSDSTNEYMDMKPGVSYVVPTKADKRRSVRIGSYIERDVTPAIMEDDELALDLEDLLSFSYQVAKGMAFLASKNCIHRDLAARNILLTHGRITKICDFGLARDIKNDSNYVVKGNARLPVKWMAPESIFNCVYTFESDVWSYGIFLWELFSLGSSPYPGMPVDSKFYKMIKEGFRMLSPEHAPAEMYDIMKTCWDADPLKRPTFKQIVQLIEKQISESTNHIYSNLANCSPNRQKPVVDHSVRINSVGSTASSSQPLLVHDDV", "settings": "cited from earlier work"}, "DHL4": {"test_system": "DHL4", "experiment": "Viability of DLBCL cell line DHL4 by luminescent ATP detection (Cell Titer Glo)", "type": "cell-based", "settings": "single agents; three days; ATP luminescence", "procedure": "The final concentration of solvent (DMSO) during experimental time course was 1%. The robotic system Biomek 2 was used for all pipetting steps. After three days at 37 degrees in a tissue culture incubator, viability of cells was determined by lysis and luminescent ATP detection. ATP detection was carried out by addition of 20 μL Cell Titer Glo (Promega) following the protocol provided by manufacturer.\nThe concentrations of the inhibitors required to obtain 50, 75 or 90 percent inhibition are plotted in an isobologram (Tallarida R J. Dose response relations in pharmacology, Chapman and Hall/CRC, 2000)."}}, "data": [{"smiles": "C[C@@H]1C[C@H]2[C@@H]3CCC4=CC(=O)C=C[C@]4(C)[C@@]3(F)[C@@H](O)C[C@]2(C)[C@@]1(O)C(=O)CO", "note": "[Dexamethasone, reference compound]", "values": [{"measurement": "Maximum Inflammation Score measurement", "setting": "[1]; Dexamethasone 1 mg/Kg", "value": 1.50}, {"measurement": "Mean Inflammation Score", "setting": "[1]; Dexamethasone 1 mg/Kg", "value": 0.188}, {"measurement": "Minimum Inflammation Score measurement", "setting": "[1]; Dexamethasone 1 mg/Kg", "value": 0.0}, {"measurement": "rats suffering from lymphopenia", "setting": "[2]; Lewis, 16 day", "value": "3 out of 4"}, {"measurement": "lymphocyte count (group)", "setting": "[2]", "value": 2320, "unit": "µL⁻¹"}]}, {"smiles": "COc1cc(Nc2ncc(F)c(Nc3ccc4c(n3)N(COP(=O)(O)O)C(=O)C(C)(C)O4)n2)cc(OC)c1OC", "note": "[Fostamatinib disodium]", "values": [{"measurement": "activity against Flt3", "setting": "Flt3", "value": "active"}, {"measurement": "activity against JAK kinases", "setting": "JAK kinases", "value": "active"}, {"measurement": "activity against Src kinase", "setting": "Src kinase", "value": "not against Src kinsase"}, {"measurement": "activity against cKit", "setting": "cKit", "value": "active"}]}, {"smiles": "CN(Cc1cnc2nc(N)nc(N)c2n1)c1ccc(C(=O)N[C@@H](CCC(=O)O)C(=O)O)cc1", "note": "[Methotrexate, reference compound]", "values": [{"measurement": "Maximum Inflammation Score measurement", "setting": "[1]; Methotrexate 0.1 mg/kg", "value": 4.63}, {"measurement": "Minimum Inflammation Score measurement", "setting": "[1]; Methotrexate 0.1 mg/kg", "value": 1.25}, {"measurement": "Mean Inflammation Score", "setting": "[1]; Methotrexate 0.1 mg/kg, all animals over entire time course", "value": 3.65}, {"measurement": "Maximum Inflammation Score measurement", "setting": "[1]; Methotrexate 0.3 mg/kg", "value": 5.00}, {"measurement": "Minimum Inflammation Score measurement", "setting": "[1]; Methotrexate 0.3 mg/kg", "value": 1.00}, {"measurement": "Mean Inflammation Score", "setting": "[1]; Methotrexate 0.3 mg/kg, all animals over entire time course", "value": 4.02}, {"measurement": "Maximum Inflammation Score measurement", "setting": "[1]; Methotrexate 1.0 mg/kg", "value": 4.00}, {"measurement": "Minimum Inflammation Score measurement", "setting": "[1]; Methotrexate 1.0 mg/kg", "value": 1.13}, {"measurement": "Mean Inflammation Score", "setting": "[1]; Methotrexate 1.0 mg/kg, all animals over entire time course", "value": 2.90}, {"measurement": "Maximum Inflammation Score measurement", "setting": "[1]; Methotrexate 2.0 mg/kg", "value": 2.50}, {"measurement": "Minimum Inflammation Score measurement", "setting": "[1]; Methotrexate 2.0 mg/kg", "value": 1.00}, {"measurement": "Mean Inflammation Score", "setting": "[1]; Methotrexate 2.0 mg/kg, all animals over entire time course", "value": 2.11}]}, {"smiles": "COc1cccc2c1C(=O)c1c(O)c3c(c(O)c1C2=O)C[C@@](O)(C(=O)CO)C[C@@H]3O[C@H]1C[C@H](N)[C@H](O)[C@H](C)O1", "note": "[Doxorubicin, reference compound]", "values": [{"measurement": "inhibitory activity on viability of DHL4 cells (in words)", "setting": "DHL4", "value": "dose responsive inhibitory activity"}]}]}
